Assay [1] relates to human thyroid cancer cell line (TT). Particulars: subcutaneous TT model; cited from earlier work.
The next assay deals with T1, KIT (Homo sapiens, UniProt P10721).
T1 construct: purchased Carna Biosciences Inc. 08-156
Description: Inhibitory action on KIT (ELISA). The format is biochemical. Particulars: recombinant human kinase. The protocol: A test compound was dissolved in dimethyl sulfoxide to make a 10 mM solution, which was stored in a dark place at 4° C. until use.
Protein tyrosine kinases (recombinant human kinases) used in the study were the following products from Carna Biosciences Inc. (Kobe, Japan).
VEGFR-1 (FLT 1) (product number: 08-189) VEGFR-3 (FLT 4) (product number: 08-190) RON (product number: 08-152) RET (product number: 08-159) KIT (product number: 08-156)
Kinase activity was measured in a mobility shift assay (MSA) method (J. Biomolecular Screening, 11, 359-368, 2006) using QuickScout Screening Assist™ (Carna Biosciences Inc., commercial kit), and enzyme-linked immunoassay (ELISA).
10 μl of the test substance solution obtained by dissolving or suspending in the assay buffer (15 mM Tris, 0.01% Tween 20, 2 mM DTT, pH 7.5) (4× final concentration), or 10 μl of a solvent (4% dimethyl sulfoxide-assay buffer) was dispensed into a DELFIA Streptavidin-coated clear plate (PerkinElmer Inc., product number 4009-0010). Then, 10 μl of an ATP/substrate/metal solution of QuickScout Screening Assist™ ELISA was added. Additionally, 20 μl of the kinase solution diluted with the assay buffer was added to initiate a reaction. For a blank, only 20 μl of the assay buffer was added. The assay method was in accordance with the protocol of QuickScout Screening Assist™ ELISA. After the reaction, the absorbance at 450 nm in each well was measured using SpectraMax (Molecular Devices, California, U.S.A).

Assay [2] relates to Human umbilical vein endothelial cells (HUVECs). Put plainly: Growth inhibitory activity on human umbilical vein endothelial cells stimulated by VEGF. Particulars: HUVEC, 72 h, 3 days, Cell Counting Kit-8. In kind it is cell-based. Here is the method: Human umbilical vein endothelial cells (HUVECs) were isolated according to the reported method (Shin-seikagaku jikken kouza “saibou baiyou gijutu (Cell culturing techniques)” p. 197-202) and incubated to confluence using an EGM-2 culture medium (obtained from Sanko Junyaku Co., Ltd.) in a 5% CO2 incubator (37° C.). The HUVECs were collected by a trypsin-EDTA treatment and washed with a culture medium (2% fetal bovine serum-supplemented Human endothelial SFM basal medium, obtained from Invitrogen Corp.), followed by suspending them in the medium to count the cell number. By diluting it with the medium, a 2×10^4 cells/ml cell suspension was prepared. The cell suspension was dispensed into a 96-well plate (obtained from FALCON) by 100 μl each, and incubated at 37° C. in a 5% CO2 incubator overnight. After the incubation, 50 μl of the test substance diluted with the medium was added to each well, and 50 μL of 80 ng/ml human recombinant VEGF (obtained from R&D systems, Inc.) diluted with the medium was added and further incubated for 3 days in the 5% CO2 incubator (37° C.). After the incubation, 20 μl of Cell Counting Kit-8 (obtained from DOJINDO Laboratories) was added to each well, which were incubated for about 2 hours in the 5% CO2 incubator (37° C.). After the incubation, the absorbance of the each well was measured using a plate reader MTP-500 (Corona Electric Co., Ltd) with a measurement wavelength of 450 nm and a control wavelength of 660 nm. A ratio of absorbance (%) of each well with the test substance against the wells without the test substance was determined, and based on this ratio, the concentration of the test substance required to inhibit 50% of cell proliferation (IC50) was determined and the results are shown in Table 2.

Assay [3] concerns the target T2, VEGFR-2 tyrosine kinase (His6-VEGFR-2, cytoplasmic domain) (Homo sapiens, UniProt P35968).
T2 construct: made in house; host or cells: Sf9 insect cells (baculovirus, pFastBac-HT)
Put plainly: Inhibitory activity on VEGFR-2 tyrosine kinase (HTRF). Particulars: biotin-poly(GT) substrate. In kind it is biochemical. An excerpt: Cytoplasmic domain of VEGFR-2 (Genbank Accession No. L04947) is a 1.7 kb DNA fragment starting from lysine 791 and contains a stop codon, as described by Tarman et al. (Oncogene, 6(9), 1677-1683, 1991). This DNA fragment was isolated from a human placental cDNA library (obtained from Clontech Laboratories, Inc.) with two primers (obtained from TaKaRa Ex Taq™ Kit, TaKaRa) using a PCR method. This DNA fragment was cloned into a baculovirus transplace vector (pFastBac™-HT (obtained from GIBCO BRL)), to obtain a recombinant construct. An insect cell (Spodoptera frugiperda 9 (Sf9)) was transfected with it, and a VEGFR-2 recombinant baculovirus solution was prepared (preparation of the recombinant baculovirus can be found in a standard textbook (Bac-to-Bac Baculovirus Expression System (GIBCO BRL)).
To Sf9 cells (3×10^8 cells) suspended in a SF-90011 culture medium containing 2% FBS (obtained from Invitrogen Corp.), the above mentioned recombinant VEGFR-2 baculovirus solution (4 ml) was added and incubated with shaking at 27° C. for 48 hours. The recombinant VEGFR-2 baculovirus-infected cell culture was centrifuged at 4° C. at 1000 rpm for 5 minutes, and the supernatant was removed. The precipitated infected cells were suspended in 80 ml of ice-cold PBS, the suspension was centrifuged at 4° C. at 1000 rpm for 5 minutes, and the supernatant was removed. The precipitated infected cells were suspended in 40 ml of ice-cold Lysis Buffer (50 mM Tris-HCl (pH 8.5), 5 mM 2-mercaptoethanol, 100 mM KCl, 1 mM PMSF, and 1% (v/v) NP-40). This suspension was centrifuged at 4° C. at 12,000 rpm for 30 min to obtain a supernatant.
This supernatant was added to a Ni-NTA agarose column (3 ml, obtained from Qiagen) which had been equilibrated with 30 ml of Buffer A (20 mM Tris-HCl (pH 8.5), 5 mM 2-mercaptoethanol, 500 mM KCl, 20 mM imidazole, and 10% (v/v) glycerol). This column was washed sequentially with 30 ml of Buffer A, 6 ml of Buffer B (20 mM Tris-HCl (pH 8.5), 5 mM 2-mercaptoethanol, 1M KCl, and 10% (v/v) glycerol), and 6 ml of Buffer A. Then, to this column, 6 ml of Buffer C (20 mM Tris-HCl (pH 8.5), 5 mM 2-mercaptoethanol, 100 mM KCl, 100 mM imidazole, and 10% (v/v) glycerol) was added to obtain an eluate. This eluate was poured into a dialysis membrane (obtained from Spectrum Laboratories) and dialyzed with 1 liter of dialysis buffer (20 mM Tris-HCl (pH 7.5), 10% (v/v) glycerol, 1 mM DTT, 0.1 mM Na3VO4, 0.1 mM EGTA) at 4° C. overnight and stored at −80° C. until use. After the dialysis, a part of the eluate was subjected to a SDS electrophoresis, and the recombinant protein (His 6-VEGFR-2, a cytoplasmic domain of VEGFR-2 fused with 6 histidine residues on its N-terminus) detected at about 100 kDa Mw in Coomassie Brilliant Blue staining was subjected to protein quantification using BSA (obtained from Sigma Co. Ltd.) as a standard.
In each well of a 96-well round bottom plate (obtained from NUNC, product number 163320), 10 μl of a solution for kinase reaction (200 mM Hepes (pH 7.4), 80 mM MgCl2, 16 mM MnCl2, 2 mM Na3VO4), 250 ng of biotin-conjugated poly (Glu 4: Tyr 1) (biotin-poly (GT) obtained from Nihon Schering K.K.) (6 μl of 1/15 diluted solution with distilled water), 15 ng of His6-VEGFR-2 (10 μl of a 1/240 diluted solution with a 0.4% BSA solution), and a test substance solution in dimethyl sulfoxide (4 μl of 1/100 dilution with 0.1% BSA) were added to make a total volume of 30 μl. To them, 10 μl of 4 μM ATP (obtained from Sigma Co. Ltd.) diluted with distilled water was added, and the resultant was incubated for 10 minutes at 30° C., followed by addition of 10 μl of 500 mM EDTA (pH 8.0) (obtained from Wako Pure Chemical Industries, Ltd.) to obtain a kinase reaction solution.
To detect tyrosine-phosphorylated biotin-poly (GT), the Homogenous Time-Resolved Fluorescence (HTRF) method was used (Analytical Biochemistry, 269, 94-104, 1999). […]

The subject of assay [4] is NIH3T3 cells transformed by mutated RET. Particulars: after injection of the cells to a nude mouse; cited from earlier work.
Assay [5] has the same test system. Particulars: cited from earlier work.

T2 sequence (P35968 786-1356 limits assumed): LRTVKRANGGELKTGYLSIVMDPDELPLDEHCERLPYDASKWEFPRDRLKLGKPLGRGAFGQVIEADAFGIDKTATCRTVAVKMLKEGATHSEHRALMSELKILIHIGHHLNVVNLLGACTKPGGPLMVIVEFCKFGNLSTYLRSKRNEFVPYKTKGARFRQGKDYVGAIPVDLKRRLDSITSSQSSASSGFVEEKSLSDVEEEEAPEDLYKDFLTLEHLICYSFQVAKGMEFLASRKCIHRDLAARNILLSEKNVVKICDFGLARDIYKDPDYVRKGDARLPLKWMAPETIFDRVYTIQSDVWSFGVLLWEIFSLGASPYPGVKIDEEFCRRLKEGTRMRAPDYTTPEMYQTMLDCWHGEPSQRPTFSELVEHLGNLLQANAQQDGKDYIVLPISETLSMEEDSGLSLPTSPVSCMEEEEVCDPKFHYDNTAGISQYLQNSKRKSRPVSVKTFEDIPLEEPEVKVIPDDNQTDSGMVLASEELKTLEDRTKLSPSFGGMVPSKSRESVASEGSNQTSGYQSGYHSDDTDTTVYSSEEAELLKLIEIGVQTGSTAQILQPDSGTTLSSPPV
T1 sequence (P10721 26-976): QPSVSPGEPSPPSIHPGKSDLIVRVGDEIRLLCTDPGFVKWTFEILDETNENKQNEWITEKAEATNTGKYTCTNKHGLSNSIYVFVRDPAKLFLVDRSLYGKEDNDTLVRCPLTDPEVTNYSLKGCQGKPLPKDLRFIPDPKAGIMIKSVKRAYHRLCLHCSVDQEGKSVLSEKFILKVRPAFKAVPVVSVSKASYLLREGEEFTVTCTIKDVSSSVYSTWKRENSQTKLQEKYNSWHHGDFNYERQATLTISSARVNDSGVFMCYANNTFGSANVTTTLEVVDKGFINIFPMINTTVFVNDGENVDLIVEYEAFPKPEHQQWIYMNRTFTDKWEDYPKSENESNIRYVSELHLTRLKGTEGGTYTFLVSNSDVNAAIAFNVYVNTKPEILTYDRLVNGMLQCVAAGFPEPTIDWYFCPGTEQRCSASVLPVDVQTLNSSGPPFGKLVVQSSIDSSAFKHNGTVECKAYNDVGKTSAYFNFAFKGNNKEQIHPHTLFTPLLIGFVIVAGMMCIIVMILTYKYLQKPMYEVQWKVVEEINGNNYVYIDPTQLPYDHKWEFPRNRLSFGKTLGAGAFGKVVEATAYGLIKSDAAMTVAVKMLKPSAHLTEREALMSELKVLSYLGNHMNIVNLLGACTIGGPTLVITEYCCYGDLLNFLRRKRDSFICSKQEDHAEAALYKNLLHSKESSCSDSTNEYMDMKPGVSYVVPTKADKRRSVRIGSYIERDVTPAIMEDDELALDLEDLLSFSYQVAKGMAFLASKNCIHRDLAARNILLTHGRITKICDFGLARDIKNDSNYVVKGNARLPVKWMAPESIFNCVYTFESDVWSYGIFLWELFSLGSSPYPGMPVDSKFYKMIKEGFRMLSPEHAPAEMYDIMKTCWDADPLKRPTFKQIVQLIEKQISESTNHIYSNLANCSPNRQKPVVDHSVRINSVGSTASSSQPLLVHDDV

On to `CNC(=O)c1cc(Oc2ccc(NC(=O)Nc3ccc(Cl)c(C(F)(F)F)c3)cc2)ccn1` [BAY 43-9006], for which the tumor size result in assay [1] is “reduced a tumor size”.
For `CN1CCN(C2CCN(C(=O)Nc3cc(Oc4ccc(NC(=O)C5(C(=O)Nc6ccc(F)cc6)CC5)c(F)c4)ccn3)CC2)CC1` [N-(2-Fluoro-4-{[2-({[4-(4-methylpiperazin-1-yl)piperidin-1-yl]carbonyl}amino)pyridin-4-yl]oxy}phenyl)-N′-(4-fluorophenyl)cyclopropane-1,1-dicarboxamide], the values for the half-inhibitory concentration (IC50) (on KIT; in assay [2]; in assay [3]) were 100 nM, 82 nM and 240 nM, respectively.
Regarding `COc1cc2c(Nc3ccc(Br)cc3F)ncnc2cc1OCC1CCN(C)CC1` [ZD6474], the tumorigenesis entry in assay [4] is “inhibited tumorigenesis”. Also, in assay [5], the anchorage-independent growth entry is “suppressed anchorage-independent growth”.

The record behind these values is patent US20090227556A1, “RECEPTOR TYROSINE KINASE INHIBITORS COMPRISING PYRIDINE AND PYRIMIDINE DERIVATIVES” (Eisai R&D Management Co., Ltd., priority 2008, published 2009).
